Measurements published in patent US8119671B2, “Isoxazoline-substituted benzamide compound and pest control agent” (Nissan Chemical Industries, Ltd., priority 2007, dated 2012).

How the values were obtained:
Type in all cases: in vivo
[1] = system: American dog ticks (Dermacentor variabilis); assay: Test Example 16: Mortality Test for American Dog Tick; details: 96 h, thin film in petri dishes, 0.1 μg/cm^2 (acetone solution 100 ppm), protonymphs, after 4 days
Protocol: To the bottom surfaces and the side surfaces of two petri dishes having an inner diameter of 5.3 cm, 400 μL of an acetone solution in which 4 mg of a compound of the present invention was dissolved in 40 mL of acetone (concentration: 100 ppm) was applied and the acetone was volatilized to form a thin film of the compound of the present invention on the inner walls of the petri dishes. The inner wall of the used petri dish has an area of 40 cm^2, so that the amount of the applied drug is 0.1 μg/cm^2. In one petri dish, 10 American dog ticks (Dermacentor variabilis) protonymphs (male and female were mixed) were released and the petri dish was capped with the other petri dish. The seam part of the two petri dishes was sealed with a tape so that the protonymphs could not flee and the two petri dishes were stored in a thermostat room of 25° C. The number of killed protonymphes after 4 days was measured and the mortality was calculated from the same calculation formula as that in Test Example 1. Here, the test was carried out on the single sample.

Myzus persicae = assay: Test Example 10: Mortality Test for Myzus persicae; details: 144 h
Protocol: In a glass petri dish having an inner diameter of 3 cm, a wet absorbent cotton was laid, and on the cotton, a leaf of canarium album cut out so as to have the same diameter as the inner diameter of the petri dish was laid, followed by releasing 4 apterous imagines of Myzus persicae on the leaf. After one day, 10% emulsifiable concentrate of the compound of the present invention (depending on the type of the compound, a 10% wettable powder was subjected to the test) was diluted with water containing a spreader to prepare a drug solution in a concentration of 500 ppm. The drug solution was dusted using a rotary dusting tower (2.5 mg/cm^2) and the petri dish was capped and stored in a thermostat room of 25° C. The number of killed imagines after 6 days was measured and the mortality was calculated from the same calculation formula as that in Test Example 1. Here, the test was carried out with two replications.

[2] = system: Frankliniella occidentalis; assay: Test Example 18: Mortality Test for Frankliniella occidentalis (Comparative Test 2); details: 48 h
Protocol: In a styrol cup having an inner diameter of 7 cm, a wet filtration paper was laid, and on the paper, a leaf of kidney bean cut out so as to have the same diameter as the inner diameter of the cup was laid, followed by inoculating ten 1 instar larvae of Frankliniella occidentalis per leaf to the leaf. 10% emulsifiable concentrates of the compound of the present invention and a comparative compound were diluted with water containing a spreader to prepare drug solutions in a predetermined concentration. The drug solutions were dusted using a rotary dusting tower in an amount of 2.5 mL per styrol cup, and the cup was capped and stored in a thermostat room of 25° C. The number of killed larvae after 2 days was measured and the mortality was calculated from the following calculation formula: Mortality (%)=(number of killed larvae/number of released larvae)×100. Here, the test was carried out with two replications.

Homona magnanima = assay: Test Example 3: Mortality Test for Homona magnanima; details: 144 h
Protocol: (§1) A 10% emulsifiable concentrate of the compound of the present invention (depending on the type of the compound, a 10% wettable powder was subjected to the test) was diluted with water containing a spreader to prepare a drug solution in a concentration of 100 ppm. In this drug solution, a leaf of canarium album was immersed for about 10 seconds and was air-dried and then put into a petri dish. In the petri dish, five 2 instar larvae of Homona magnanima per petri dish were released and the petri dish was capped and stored in a thermostat room of 25° C. The number of killed larvae after 6 days was measured and the mortality was calculated from the same calculation formula as that in Test Example 1. Here, the test was carried out with two replications.

Thrips palmi = assay: Test Example 6: Mortality Test for Thrips palmi; details: 48 h
Protocol: In a styrol cup having an inner diameter of 7 cm, a wet filtration paper was laid, and on the paper, a leaf of kidney bean cut out so as to have the same diameter as the inner diameter of the cup was laid, followed by inoculating 10 imagines of Thrips palmi per leaf to the leaf. A 10% emulsifiable concentrate of the compound of the present invention (depending on the type of the compound, a 10% wettable powder was subjected to the test) was diluted with water containing a spreader to prepare a drug solution in a concentration of 100 ppm. The drug solution was dusted using a rotary dusting tower in an amount of 2.5 mL per one styrol cup and the cup was capped and stored in a thermostat room of 25° C. The number of killed imagines after 2 days was measured and the mortality was calculated from the same calculation formula as that in Test Example 1. Here, the test was carried out with two replications.

Liriomyza trifolii = assay: Test Example 13: Mortality Test for Liriomyza trifolii; details: 144 h, drug solution 500 ppm, kidney bean leaf with eggs immersed, after 6 days
Protocol: as §1, with “500” for “100”, “kidney bean on which Liriomyza trifolii laid eggs (10 eggs/leaf) and which was cut out to a diameter of 7 cm” for “canarium album”, “laid on” for “put into”, “wet filtration paper laid in a styrol cup having an inner diameter” for “petri dish. In the petri dish, five 2 instar larvae”, “7 cm. The styrol cup” for “Homona magnanima per petri dish were released and the petri dish”

Helicoverpa armigera = assay: Test Example 4: Mortality Test for Helicoverpa armigera; details: 144 h
Protocol: as §1, with “dish, one” for “dish, five”, “instar larva” for “instar larvae”, “of Helicoverpa armigera” for “of Homona magnanima”, “dish was” for “dish were”, “with 2” for “with two”

Aulacophora femoralis = assay: Test Example 12: Mortality Test for Aulacophora femoralis; details: in Cucumis sativus, 144 h
Protocol: as §1, with “500” for “100”, “cucumber” for “canarium album”, “Aulacophora femoralis” for “Homona magnanima”

## Cc1cc(C2=NOC(c3cc(Cl)cc(Cl)c3)(C(F)(F)F)C2)ccc1C(=O)NC1(c2ccccn2)CC1 (stereo not drawn) [No. 1-007, 4-[5-(3,5-Dichlorophenyl)-5-trifluoromethyl-4,5-dihydroisoxazole-3-yl]-2-methyl-N-[1-(2-pyridyl)cyclopropyl]benzamide]
[1]
  mortality at 100 ppm, 0.1 µg/cm2: ≥ 80%
Myzus persicae
  mortality at 500 ppm: ≥ 80%
[2]
  mortality at 0.1 ppm: 0%
  mortality at 0.3 ppm: 0%
  mortality at 1 ppm: 38.1%
  mortality at 3.3 ppm: 96.3%
  mortality at 10 ppm: 100%
Homona magnanima
  mortality at 100 ppm: ≥ 80%
Thrips palmi
  mortality at 100 ppm: ≥ 80%
Liriomyza trifolii
  mortality at 500 ppm: ≥ 80%
Helicoverpa armigera
  mortality at 100 ppm: ≥ 80%
Aulacophora femoralis
  mortality at 500 ppm: ≥ 80%
